Results taken from patent US20060004019A1, “Steroid sparing agents and methods of using same” (priority 2004, published 2006).

Tested on: rat cardiac allografts
Test: Rat cardiac allograft study, Allograft Study 5, dose response (Table 23)
Assay type: in vivo

CC(C)OC(=O)[C@H](Cc1ccc(OC(=O)N2CCN(C)CC2)cc1)NC(=O)[C@H]1N([S+]([O-])c2cccnc2)CSC1(C)C (stereo partly shown) [listing 1 of 2 here]
number of surviving grafts (day 0, 3 mg/kg s.c.): 6
number of surviving grafts (day 1, 3 mg/kg s.c.): 6
number of surviving grafts (day 2, 3 mg/kg s.c.): 6
number of surviving grafts (day 3, 3 mg/kg s.c.): 6
number of surviving grafts (day 4, 3 mg/kg s.c.): 6
number of surviving grafts (day 5, 3 mg/kg s.c.): 6
number of surviving grafts (day 6, 3 mg/kg s.c.): 6
number of surviving grafts (day 7, 3 mg/kg s.c.): 5
number of surviving grafts (day 8, 3 mg/kg s.c.): 5
number of surviving grafts (day 9, 3 mg/kg s.c.): 3
number of surviving grafts (day 10, 3 mg/kg s.c.): 0
number of surviving grafts (day 11, 3 mg/kg s.c.): 0
number of surviving grafts (day 12, 3 mg/kg s.c.): 0
number of surviving grafts (day 13, 3 mg/kg s.c.): 0
number of surviving grafts (day 14, 3 mg/kg s.c.): 0
graft survival, data normalized to group size (day 15, 3 mg/kg s.c.): 0%
number of surviving grafts (day 15, 3 mg/kg s.c.): 0
graft survival, data normalized to group size (day 16, 3 mg/kg s.c.): 16%
number of surviving grafts (day 16, 3 mg/kg s.c.): 0
graft survival, data normalized to group size (day 17, 3 mg/kg s.c.): 17%
number of surviving grafts (day 17, 3 mg/kg s.c.): 0
graft survival, data normalized to group size (day 18, 3 mg/kg s.c.): 18%
number of surviving grafts (day 18, 3 mg/kg s.c.): 0
graft survival, data normalized to group size (day 19, 3 mg/kg s.c.): 19%
number of surviving grafts (day 19, 3 mg/kg s.c.): 0
graft survival, data normalized to group size (day 20, 3 mg/kg s.c.): 20%
number of surviving grafts (day 20, 3 mg/kg s.c.): 0
graft survival, data normalized to group size (day 21, 3 mg/kg s.c.): 21%
number of surviving grafts (day 21, 3 mg/kg s.c.): 0

CC(C)OC(=O)[C@H](Cc1ccc(OC(=O)N2CCN(C)CC2)cc1)NC(=O)[C@H]1N([S+]([O-])c2cccnc2)CSC1(C)C (stereo partly shown) [listing 2 of 2 here]
graft survival, data normalized to group size (day 1, 3 mg/kg s.c.): 100%
graft survival, data normalized to group size (day 2, 3 mg/kg s.c.): 100%
graft survival, data normalized to group size (day 3, 3 mg/kg s.c.): 100%
graft survival, data normalized to group size (day 4, 3 mg/kg s.c.): 100%
graft survival, data normalized to group size (day 5, 3 mg/kg s.c.): 100%
graft survival, data normalized to group size (day 6, 3 mg/kg s.c.): 100%
graft survival, data normalized to group size (day 7, 3 mg/kg s.c.): 83%
graft survival, data normalized to group size (day 8, 3 mg/kg s.c.): 83%
graft survival, data normalized to group size (day 9, 3 mg/kg s.c.): 50%
graft survival, data normalized to group size (day 10, 3 mg/kg s.c.): 0%
graft survival, data normalized to group size (day 11, 3 mg/kg s.c.): 0%
graft survival, data normalized to group size (day 12, 3 mg/kg s.c.): 0%
graft survival, data normalized to group size (day 13, 3 mg/kg s.c.): 0%
graft survival, data normalized to group size (day 14, 3 mg/kg s.c.): 0%

CC(C)OC(=O)[C@H](Cc1ccc(OC(=O)N2CCN(C)CC2)cc1)NC(=O)[C@H]1N(S(=O)(=O)c2cccnc2)CSC1(C)C [listing 1 of 3 here]
graft survival, data normalized to group size (day 1, 10 mg/kg s.c.): 100%
graft survival, data normalized to group size (day 2, 10 mg/kg s.c.): 100%
graft survival, data normalized to group size (day 3, 10 mg/kg s.c.): 100%
graft survival, data normalized to group size (day 4, 10 mg/kg s.c.): 100%
graft survival, data normalized to group size (day 5, 10 mg/kg s.c.): 100%
graft survival, data normalized to group size (day 6, 10 mg/kg s.c.): 100%
graft survival, data normalized to group size (day 7, 10 mg/kg s.c.): 100%
graft survival, data normalized to group size (day 8, 10 mg/kg s.c.): 100%
graft survival, data normalized to group size (day 9, 10 mg/kg s.c.): 80%
graft survival, data normalized to group size (day 10, 10 mg/kg s.c.): 80%
graft survival, data normalized to group size (day 11, 10 mg/kg s.c.): 80%
graft survival, data normalized to group size (day 12, 10 mg/kg s.c.): 80%
graft survival, data normalized to group size (day 13, 10 mg/kg s.c.): 40%
graft survival, data normalized to group size (day 14, 10 mg/kg s.c.): 40%

CC(C)OC(=O)[C@H](Cc1ccc(OC(=O)N2CCN(C)CC2)cc1)NC(=O)[C@H]1N(S(=O)(=O)c2cccnc2)CSC1(C)C [listing 2 of 3 here]
number of surviving grafts (day 0, 10 mg/kg s.c.): 5
number of surviving grafts (day 1, 10 mg/kg s.c.): 5
number of surviving grafts (day 2, 10 mg/kg s.c.): 5
number of surviving grafts (day 3, 10 mg/kg s.c.): 5
number of surviving grafts (day 4, 10 mg/kg s.c.): 5
number of surviving grafts (day 5, 10 mg/kg s.c.): 5
number of surviving grafts (day 6, 10 mg/kg s.c.): 5
number of surviving grafts (day 7, 10 mg/kg s.c.): 5
number of surviving grafts (day 8, 10 mg/kg s.c.): 5
number of surviving grafts (day 9, 10 mg/kg s.c.): 4
number of surviving grafts (day 10, 10 mg/kg s.c.): 4
number of surviving grafts (day 11, 10 mg/kg s.c.): 4
number of surviving grafts (day 12, 10 mg/kg s.c.): 4
number of surviving grafts (day 13, 10 mg/kg s.c.): 2
number of surviving grafts (day 14, 10 mg/kg s.c.): 2
graft survival, data normalized to group size (day 15, 10 mg/kg s.c.): 40%
number of surviving grafts (day 15, 10 mg/kg s.c.): 2
graft survival, data normalized to group size (day 16, 10 mg/kg s.c.): 20%
number of surviving grafts (day 16, 10 mg/kg s.c.): 1
graft survival, data normalized to group size (day 17, 10 mg/kg s.c.): 20%
number of surviving grafts (day 17, 10 mg/kg s.c.): 1
graft survival, data normalized to group size (day 18, 10 mg/kg s.c.): 20%
number of surviving grafts (day 18, 10 mg/kg s.c.): 1
graft survival, data normalized to group size (day 19, 10 mg/kg s.c.): 20%
number of surviving grafts (day 19, 10 mg/kg s.c.): 1
graft survival, data normalized to group size (day 20, 10 mg/kg s.c.): 20%
number of surviving grafts (day 20, 10 mg/kg s.c.): 1
graft survival, data normalized to group size (day 21, 10 mg/kg s.c.): 20%
number of surviving grafts (day 21, 10 mg/kg s.c.): 1

CC(C)OC(=O)[C@H](Cc1ccc(OC(=O)N2CCN(C)CC2)cc1)NC(=O)[C@H]1N(S(=O)(=O)c2cccnc2)CSC1(C)C [listing 3 of 3 here]
number of surviving grafts (day 0, 30 mg/kg s.c.): 6
number of surviving grafts (day 1, 30 mg/kg s.c.): 6
number of surviving grafts (day 2, 30 mg/kg s.c.): 6
number of surviving grafts (day 3, 30 mg/kg s.c.): 6
number of surviving grafts (day 4, 30 mg/kg s.c.): 6
number of surviving grafts (day 5, 30 mg/kg s.c.): 6
number of surviving grafts (day 6, 30 mg/kg s.c.): 6
number of surviving grafts (day 7, 30 mg/kg s.c.): 6
number of surviving grafts (day 8, 30 mg/kg s.c.): 6
number of surviving grafts (day 9, 30 mg/kg s.c.): 6
number of surviving grafts (day 10, 30 mg/kg s.c.): 6
number of surviving grafts (day 11, 30 mg/kg s.c.): 6
number of surviving grafts (day 12, 30 mg/kg s.c.): 6
number of surviving grafts (day 13, 30 mg/kg s.c.): 6
number of surviving grafts (day 14, 30 mg/kg s.c.): 6
graft survival, data normalized to group size (day 15, 30 mg/kg s.c.): 100%
number of surviving grafts (day 15, 30 mg/kg s.c.): 6
graft survival, data normalized to group size (day 16, 30 mg/kg s.c.): 100%
number of surviving grafts (day 16, 30 mg/kg s.c.): 6
graft survival, data normalized to group size (day 17, 30 mg/kg s.c.): 100%
number of surviving grafts (day 17, 30 mg/kg s.c.): 6
graft survival, data normalized to group size (day 18, 30 mg/kg s.c.): 100%
number of surviving grafts (day 18, 30 mg/kg s.c.): 6
graft survival, data normalized to group size (day 19, 30 mg/kg s.c.): 100%
number of surviving grafts (day 19, 30 mg/kg s.c.): 6
graft survival, data normalized to group size (day 20, 30 mg/kg s.c.): 100%
number of surviving grafts (day 20, 30 mg/kg s.c.): 6
graft survival, data normalized to group size (day 21, 30 mg/kg s.c.): 83%
number of surviving grafts (day 21, 30 mg/kg s.c.): 5
